Earlier results in US20110313040A1, “ORGANIC NUTRIENT SALTS, METHODS OF PREPARATION AND USES” (BELLUS HEALTH INC., priority 2008, published 2011).

Settings: in vivo

## NCCCS(=O)(=O)[O-].[Na+] [sodium salt of homotaurine]
  stomach and gastrointestinal tolerance: caused stomach and gastrointestinal intolerance (e.g. nausea, vomiting)
